Assay results as given in article PMC9254107, “The Toxoplasma glucan phosphatase TgLaforin utilizes a distinct functional mechanism that can be exploited by therapeutic inhibitors” (The Journal of Biological Chemistry, 2022).

How the values were obtained:
TgCBM = TgCBM (Toxoplasma gondii, UniProt S8F2K7); assay: Differential scanning fluorimetry carbohydrate binding
Procedure: We next analyzed TgCBM using size-exclusion chromatography coupled with multiangle light scattering (SEC-MALS) to define its oligomerization state. […] To define TgCBM carbohydrate binding, we utilized differential scanning fluorimetry (DSF) ([53], [54]). In the presence of a carbohydrate, an increase in Tm is associated with increased protein stability due to protein–ligand interaction. We incubated TgCBM with the linear oligosaccharide maltohexaose and observed a robust dose-dependent stabilization of TgCBM with an Kd,app = 20 ± 4 mM (Fig. 3E).

TgCBM K206A = assay: as above; details: DSF
TgCBM W278A = assay: as above; details: DSF
TgLaforin [1] = biological target: T1, TgLaforin (Toxoplasma gondii, UniProt S8F2K7); assay: Malachite green phosphatase assay, phosphate release from solubilized potato amylopectin; type: biochemical
T1 sequence (S8F2K7 1-523): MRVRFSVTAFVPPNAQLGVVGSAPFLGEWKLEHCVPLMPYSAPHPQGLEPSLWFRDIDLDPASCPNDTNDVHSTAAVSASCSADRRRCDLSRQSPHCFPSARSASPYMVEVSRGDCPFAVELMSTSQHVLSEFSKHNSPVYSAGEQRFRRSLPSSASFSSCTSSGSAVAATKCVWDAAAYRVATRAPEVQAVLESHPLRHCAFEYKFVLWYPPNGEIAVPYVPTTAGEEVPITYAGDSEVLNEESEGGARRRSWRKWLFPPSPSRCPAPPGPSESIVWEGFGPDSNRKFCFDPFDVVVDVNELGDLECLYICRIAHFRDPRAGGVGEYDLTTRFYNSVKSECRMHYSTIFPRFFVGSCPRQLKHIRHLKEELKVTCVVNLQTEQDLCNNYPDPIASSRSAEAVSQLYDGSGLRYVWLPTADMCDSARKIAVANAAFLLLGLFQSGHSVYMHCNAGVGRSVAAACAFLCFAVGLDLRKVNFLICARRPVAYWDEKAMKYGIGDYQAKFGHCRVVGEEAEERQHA
Procedure: Release of phosphate from potato amylopectin was determined as done previously ([23], [24], [42], [93]) with the following modifications. Briefly, phosphate release was monitored using the PiColorLock Phosphate Detection Reagent (Novus Biologicals), a malachite green–based assay. For time course assays, 5 nM recombinant protein was incubated with 90 μg solubilized potato amylopectin (Sigma-Aldrich), supplied as a powder; solubilized at a stock concentration of 5 mg/ml using alcohol/alkaline method (also referred to as the “Roach method” in Ref. ([93])) in phosphatase buffer in a final volume of 80 μl at pH 6.5. […] After 5 min, 8 μl stabilizer solution (0.1 initial reaction volume) was added, and reaction was allowed to develop for 30 min at r.t. before the absorbance of each reaction was measured at 635 nm using a Synergy HTX Multi-Mode Reader (BioTek). Absorbance was converted to pmol Pi release using a Pi absorbance standard curve. […]
(§1) L319-M21-M49 stock solutions were prepared by resuspending the inhibitor in DMSO at a concentration of 20 mM. […] The efficacy of L319-M21-M49 against various phosphatases was determined using the assay conditions described above. […] All reported uncertainties in IC50 values were calculated and presented as standard deviation from the mean of at least three independent replicates, each consisting of three technical replicates. […]

TgLaforin [2] = biological target: T1, TgLaforin; assay: Radiolabeled (33P) starch phosphatase assay; type: biochemical; details: 33P-labeled insoluble starch
Procedure: Position-dependent phosphate release from ^33P-labeled starch was performed as previously described ([36], [41], [42], [43]). The substrate for this assay was generated by phosphorylating phosphate-free Arabidopsis sex1-3 starch with β^33P-labeled ATP (Hartmann Analytic) at the C6 and C3 positions sequentially. The starch granules were phosphorylated at the C6 position using purified recombinant StGWD enzyme. Next, the granules were phosphorylated at the C3 position using purified recombinant AtPWD enzyme.
To determine the site-specificity of TgLaforin, TgLaforin (1.3 nM) was incubated separately with 0.6 mg both C6- and C3-^33P-labeled starch in phosphatase buffer (pH 6.5) containing 1 mg/ml bovine serum albumin in a final volume of 150 μl. […] The amount of phosphate released from each starch suspension was quantified by measuring counts per minute (CPM) of the supernatant on a 1900 TR liquid scintillation counter (Packard). […]
as §1

TgLaforin [3] = biological target: T1, TgLaforin; assay: Library screening at 10 μM; type: biochemical
TgLaforin [4] = biological target: T1, TgLaforin; assay: pNPP phosphatase assay
PTP1B = biological target: T2, PTP1B (Homo sapiens, UniProt P18031); assay: Library screening at 10 μM; details: read-out: inhibition of PTP1B
T2 sequence (P18031 1-435): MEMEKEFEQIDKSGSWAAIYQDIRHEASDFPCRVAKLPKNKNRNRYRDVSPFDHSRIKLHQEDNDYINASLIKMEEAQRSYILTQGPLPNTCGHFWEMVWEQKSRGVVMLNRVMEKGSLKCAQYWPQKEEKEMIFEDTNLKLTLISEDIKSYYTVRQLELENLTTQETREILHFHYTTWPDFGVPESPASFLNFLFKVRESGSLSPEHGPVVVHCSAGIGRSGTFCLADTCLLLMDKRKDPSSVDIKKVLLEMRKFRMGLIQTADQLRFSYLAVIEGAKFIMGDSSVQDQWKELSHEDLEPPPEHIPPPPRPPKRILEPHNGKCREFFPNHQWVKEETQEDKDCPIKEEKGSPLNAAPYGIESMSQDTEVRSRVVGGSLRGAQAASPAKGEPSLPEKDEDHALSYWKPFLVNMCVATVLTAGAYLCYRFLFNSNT

VHR = VHR (Homo sapiens, UniProt P51452); assay: Library screening at 10 μM; details: read-out: inhibition of VHR
Sequence of VHR (P51452 whole entry, species assumed): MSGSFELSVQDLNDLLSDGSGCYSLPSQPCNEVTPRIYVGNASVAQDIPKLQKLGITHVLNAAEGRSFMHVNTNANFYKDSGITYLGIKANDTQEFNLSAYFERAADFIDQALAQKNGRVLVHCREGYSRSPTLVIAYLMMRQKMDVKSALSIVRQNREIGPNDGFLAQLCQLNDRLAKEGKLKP

SMILES | Kd (TgCBM) | binding to K206A mutant (TgCBM K206A) | binding to W278A mutant (TgCBM W278A) | IC50 (TgLaforin [1]) | IC50 (TgLaforin [2]; C3, read-out: IC50 phosphate release from C3 position of starch) | IC50 (TgLaforin [2]; C6, read-out: IC50 phosphate release from C6 position of starch) | inhibition at 10 µM (TgLaforin [3]) | IC50 (TgLaforin [4]) | specificity for TgLaforin over other phosphatases (TgLaforin [4]; pNPP assay, other phosphatases VHR, PTP1B, CIP) | mechanism of inhibition (Lineweaver-Burk plot) (TgLaforin [4]; pNPP substrate) | inhibition at 10 µM (PTP1B) | inhibition at 10 µM (VHR)
OC[C@H]1O[C@H](O[C@H]2[C@H](O)[C@@H](O)[C@@H](O[C@H]3[C@H](O)[C@@H](O)[C@@H](O[C@H]4[C@H](O)[C@@H](O)[C@@H](O[C@H]5[C@H](O)[C@@H](O)[C@@H](O[C@H]6[C@H](O)[C@@H](O)C(O)O[C@@H]6CO)O[C@@H]5CO)O[C@@H]4CO)O[C@@H]3CO)O[C@@H]2CO)[C@H](O)[C@@H](O)[C@@H]1O (stereo partly drawn) [maltohexaose] | 20000 ± 4000 µM | neither mutant was able to bind | neither mutant was able to bind |  |  |  |  |  |  |  |  | 
O=C(Nc1ccc(Oc2ccccc2)cc1)C(=O)Nc1ccccc1NC(=O)C(c1ccccc1)S(=O)(=O)O (stereo not drawn) [L319-21-M49, 2-oxo-2-((2-(2-oxo-2-((4-phenoxyphenyl)amino)acetamido)phenyl)amino)-1-phenylethanesulfonic acid] |  |  |  | 5.1 ± 0.4 µM | 6.7 ± 0.1 µM | 6.5 ± 1.4 µM | > 90% | 1.5 ± 0.3 µM | > 100 fold | competitive inhibitor | < 10% | < 10%
